Data as given in patent US20260240760A1, “Injectable Compositions of Vitamers of Vitamin B12 and Uses Thereof” (Nevakar Injectables Inc., priority 2023, published 2026).

Assays:
[1] = Cyanocobalamin concentration and appearance of polymer/DMSO compositions and stock solutions, with or without pamoic acid; assay type: physicochemical; details: pamoic acid present relative to not present
Method: Compositions comprising 25% polymer and cyanocobalamin either with or without pamoic acid (i.e., to form a cyanocobalamin pamoate salt) in 100% DMSO were prepared starting from 12 mg/g stock solutions, as shown in Tables 2 and 3.

[2] = within 48 hours of injection; current standard-of-care injectable compositions; cited from earlier work

Row | Dissolution of cyanocobalamin in compositions comprising poly(lactide-co-glycolide) and DMSO [1] | Substance | vitamin B12 excreted in urine [2] [%]
1 | dissolves significantly more effectively | cyanocobalamin pamoate | –
2 | – | vitamin B12 | ≤ 98
